From the supplement of paper PMC10307832

How the values were obtained:
Test in all cases: relative viability (nuclei count vs DMSO), 5 days (fraction); higher = more cells survive
[1] = compound: CCCS(=O)(=O)Nc1ccc(F)c(C(=O)c2c[nH]c3ncc(-c4ccc(Cl)cc4)cc23)c1F [Vemurafenib] + CC(=O)c1c(C)c2cnc(Nc3ccc(N4CCNCC4)cn3)nc2n(C2CCCC2)c1=O [Palbociclib] (partner 0.5 µM)
In short: (§1)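 Relative viability is defined as nuclei in treated wells over nuclei in vehicle wells. Duplicate plates were run and medians reported. Lung cancer cell lines in 1536-well plates were dosed by pin tool one day after seeding, with one drug or with a fixed anchor-drug dose plus five library-drug doses (not always all listed) in √10 steps, and nuclei were counted after 5 days.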

[2] = compound: Cc1nc(NC(=O)N2CCC[C@H]2C(N)=O)sc1-c1ccnc(C(C)(C)C(F)(F)F)c1 [Alpelisib] + CS(=O)(=O)N1CCN(Cc2cc3nc(-c4cccc5[nH]ncc45)nc(N4CCOCC4)c3s2)CC1 [Pictilisib] (partner 1 µM)
In short: as §1

[3] = compound: Cc1nc(NC(=O)N2CCC[C@H]2C(N)=O)sc1-c1ccnc(C(C)(C)C(F)(F)F)c1 [Alpelisib] + C[C@]1(O)C[C@@H](c2nc(-c3ccc4ccc(-c5ccccc5)nc4c3)c3c(N)nccn32)C1 [Linsitinib] (partner 1 µM)
In short: as §1

[4] = compound: Cc1nc(NC(=O)N2CCC[C@H]2C(N)=O)sc1-c1ccnc(C(C)(C)C(F)(F)F)c1 [Alpelisib] + Cc1nc(Nc2ncc(C(=O)Nc3c(C)cccc3Cl)s2)cc(N2CCN(CCO)CC2)n1 [Dasatinib] (partner 0.075 µM)
In short: as §1

Cell Line NCI-H2023 has a relative viability ([1]; first compound 0.03162 µM) of 0.332, a relative viability ([1]; first compound 0.1 µM) of 0.33 and a relative viability ([1]; first compound 0.3162 µM) of 0.39. The relative viability ([1]; first compound 1 µM) was 0.38, the relative viability ([2]; first compound 0.04 µM) was 0.203 and the relative viability ([2]; first compound 0.1265 µM) was 0.26. It also gave a relative viability ([2]; first compound 0.4 µM) of 0.253, a relative viability ([2]; first compound 1.265 µM) of 0.207 and a relative viability ([2]; first compound 4 µM) of 0.19. For the same cell line, the relative viability ([3]; first compound 0.04 µM) was 0.612, the relative viability ([3]; first compound 0.1265 µM) was 0.634 and the relative viability ([3]; first compound 0.4 µM) was 0.628. For the same cell line, the relative viability ([3]; first compound 1.265 µM) was 0.574, the relative viability ([3]; first compound 4 µM) was 0.444 and the relative viability ([4]; first compound 0.04 µM) was 0.484. It also gave a relative viability ([4]; first compound 0.1265 µM) of 0.537, a relative viability ([4]; first compound 0.4 µM) of 0.483 and a relative viability ([4]; first compound 1.265 µM) of 0.244. The relative viability ([4]; first compound 4 µM) was 0.304.

NCI-H2085 gave a relative viability ([1]; first compound 0.03162 µM) of 0.422, a relative viability ([1]; first compound 0.1 µM) of 0.451 and a relative viability ([1]; first compound 0.3162 µM) of 0.416. The relative viability ([1]; first compound 1 µM) was 0.509, the relative viability ([2]; first compound 0.04 µM) was 0.503 and the relative viability ([2]; first compound 0.1265 µM) was 0.549. It also gave a relative viability ([2]; first compound 0.4 µM) of 0.518, a relative viability ([2]; first compound 1.265 µM) of 0.427 and a relative viability ([2]; first compound 4 µM) of 0.426. It also gave a relative viability ([3]; first compound 0.04 µM) of 0.874, a relative viability ([3]; first compound 0.1265 µM) of 0.905 and a relative viability ([3]; first compound 0.4 µM) of 0.852. The relative viability ([3]; first compound 1.265 µM) was 0.731, the relative viability ([3]; first compound 4 µM) was 0.853 and the relative viability ([4]; first compound 0.04 µM) was 0.275. It also gave a relative viability ([4]; first compound 0.1265 µM) of 0.225, a relative viability ([4]; first compound 0.4 µM) of 0.265 and a relative viability ([4]; first compound 1.265 µM) of 0.263. It also gave a relative viability ([4]; first compound 4 µM) of 0.215.

In the case of NCI-H2087, the relative viability ([1]; first compound 0.03162 µM) is reported as 0.204, the relative viability ([1]; first compound 0.1 µM) is reported as 0.222 and the relative viability ([1]; first compound 0.3162 µM) is reported as 0.266. For the same cell line, the relative viability ([1]; first compound 1 µM) was 0.275, the relative viability ([2]; first compound 0.04 µM) was 0.801 and the relative viability ([2]; first compound 0.1265 µM) was 0.847. It also gave a relative viability ([2]; first compound 0.4 µM) of 1.01, a relative viability ([2]; first compound 1.265 µM) of 0.827 and a relative viability ([2]; first compound 4 µM) of 0.659. For the same cell line, the relative viability ([3]; first compound 0.04 µM) was 0.853, the relative viability ([3]; first compound 0.1265 µM) was 0.979 and the relative viability ([3]; first compound 0.4 µM) was 1.05. For the same cell line, the relative viability ([3]; first compound 1.265 µM) was 0.803, the relative viability ([3]; first compound 4 µM) was 1.07 and the relative viability ([4]; first compound 0.04 µM) was 0.959. It also gave a relative viability ([4]; first compound 0.1265 µM) of 0.883, a relative viability ([4]; first compound 0.4 µM) of 1.12 and a relative viability ([4]; first compound 1.265 µM) of 0.691. For the same cell line, the relative viability ([4]; first compound 4 µM) was 0.56.

With NCI-H2126 the relative viability ([1]; first compound 0.03162 µM) was 0.328, the relative viability ([1]; first compound 0.1 µM) was 0.354 and the relative viability ([1]; first compound 0.3162 µM) was 0.344. The relative viability ([1]; first compound 1 µM) was 0.333, the relative viability ([2]; first compound 0.04 µM) was 0.499 and the relative viability ([2]; first compound 0.1265 µM) was 0.506. The relative viability ([2]; first compound 0.4 µM) was 0.496, the relative viability ([2]; first compound 1.265 µM) was 0.491 and the relative viability ([2]; first compound 4 µM) was 0.501. The relative viability ([3]; first compound 0.04 µM) was 0.682, the relative viability ([3]; first compound 0.1265 µM) was 0.716 and the relative viability ([3]; first compound 0.4 µM) was 0.66. It also gave a relative viability ([3]; first compound 1.265 µM) of 0.698, a relative viability ([3]; first compound 4 µM) of 0.63 and a relative viability ([4]; first compound 0.04 µM) of 0.599. For the same cell line, the relative viability ([4]; first compound 0.1265 µM) was 0.564, the relative viability ([4]; first compound 0.4 µM) was 0.507 and the relative viability ([4]; first compound 1.265 µM) was 0.354. For the same cell line, the relative viability ([4]; first compound 4 µM) was 0.307.

In the case of NCI-H2228, the relative viability ([1]; first compound 0.03162 µM) is reported as 0.698, the relative viability ([1]; first compound 0.1 µM) is reported as 0.772 and the relative viability ([1]; first compound 0.3162 µM) is reported as 0.88. For the same cell line, the relative viability ([1]; first compound 1 µM) was 0.414, the relative viability ([2]; first compound 0.04 µM) was 0.473 and the relative viability ([2]; first compound 0.1265 µM) was 0.326. It also gave a relative viability ([2]; first compound 0.4 µM) of 0.547, a relative viability ([2]; first compound 1.265 µM) of 0.445 and a relative viability ([2]; first compound 4 µM) of 0.221. For the same cell line, the relative viability ([3]; first compound 0.04 µM) was 0.762, the relative viability ([3]; first compound 0.1265 µM) was 0.496 and the relative viability ([3]; first compound 0.4 µM) was 0.564. For the same cell line, the relative viability ([3]; first compound 1.265 µM) was 0.517, the relative viability ([3]; first compound 4 µM) was 0.287 and the relative viability ([4]; first compound 0.04 µM) was 0.519. The relative viability ([4]; first compound 0.1265 µM) was 0.478, the relative viability ([4]; first compound 0.4 µM) was 0.414 and the relative viability ([4]; first compound 1.265 µM) was 0.279. It also gave a relative viability ([4]; first compound 4 µM) of 0.175.

NCI-H2347 showed a relative viability ([1]; first compound 0.03162 µM) of 0.427, a relative viability ([1]; first compound 0.1 µM) of 0.429 and a relative viability ([1]; first compound 0.3162 µM) of 0.44. The relative viability ([1]; first compound 1 µM) was 0.498, the relative viability ([2]; first compound 0.04 µM) was 0.757 and the relative viability ([2]; first compound 0.1265 µM) was 0.776. It also gave a relative viability ([2]; first compound 0.4 µM) of 0.571, a relative viability ([2]; first compound 1.265 µM) of 0.648 and a relative viability ([2]; first compound 4 µM) of 0.554. It also gave a relative viability ([3]; first compound 0.04 µM) of 0.997, a relative viability ([3]; first compound 0.1265 µM) of 0.941 and a relative viability ([3]; first compound 0.4 µM) of 1.03. The relative viability ([3]; first compound 1.265 µM) was 0.84, the relative viability ([3]; first compound 4 µM) was 0.952 and the relative viability ([4]; first compound 0.04 µM) was 0.298. The relative viability ([4]; first compound 0.1265 µM) was 0.3, the relative viability ([4]; first compound 0.4 µM) was 0.316 and the relative viability ([4]; first compound 1.265 µM) was 0.313. For the same cell line, the relative viability ([4]; first compound 4 µM) was 0.273.

In the case of NCI-H2405, the relative viability ([1]; first compound 0.03162 µM) is reported as 0.493, the relative viability ([1]; first compound 0.1 µM) is reported as 0.536 and the relative viability ([1]; first compound 1 µM) is reported as 0.58. For the same cell line, the relative viability ([2]; first compound 0.04 µM) was 0.443, the relative viability ([2]; first compound 0.1265 µM) was 0.502 and the relative viability ([2]; first compound 0.4 µM) was 0.527. The relative viability ([2]; first compound 1.265 µM) was 0.488, the relative viability ([2]; first compound 4 µM) was 0.39 and the relative viability ([3]; first compound 0.04 µM) was 1.07. It also gave a relative viability ([3]; first compound 0.1265 µM) of 0.935, a relative viability ([3]; first compound 0.4 µM) of 1.02 and a relative viability ([3]; first compound 1.265 µM) of 0.781. The relative viability ([3]; first compound 4 µM) was 0.847, the relative viability ([4]; first compound 0.04 µM) was 0.208 and the relative viability ([4]; first compound 0.1265 µM) was 0.191. For the same cell line, the relative viability ([4]; first compound 0.4 µM) was 0.216, the relative viability ([4]; first compound 1.265 µM) was 0.19 and the relative viability ([4]; first compound 4 µM) was 0.197.

With NCI-H3122 the relative viability ([1]; first compound 0.03162 µM) was 0.177, the relative viability ([1]; first compound 0.1 µM) was 0.172 and the relative viability ([1]; first compound 0.3162 µM) was 0.206. For the same cell line, the relative viability ([1]; first compound 1 µM) was 0.178, the relative viability ([2]; first compound 0.04 µM) was 0.622 and the relative viability ([2]; first compound 0.1265 µM) was 0.69. For the same cell line, the relative viability ([2]; first compound 0.4 µM) was 0.572, the relative viability ([2]; first compound 1.265 µM) was 0.58 and the relative viability ([2]; first compound 4 µM) was 0.53. The relative viability ([3]; first compound 0.04 µM) was 0.994, the relative viability ([3]; first compound 0.1265 µM) was 0.938 and the relative viability ([3]; first compound 0.4 µM) was 1.02. For the same cell line, the relative viability ([3]; first compound 1.265 µM) was 0.715, the relative viability ([3]; first compound 4 µM) was 0.675 and the relative viability ([4]; first compound 0.04 µM) was 0.806. For the same cell line, the relative viability ([4]; first compound 0.1265 µM) was 0.653, the relative viability ([4]; first compound 0.4 µM) was 0.624 and the relative viability ([4]; first compound 1.265 µM) was 0.487. It also gave a relative viability ([4]; first compound 4 µM) of 0.295.
